Results reported in ChEMBL document CHEMBL3045484, “Molecular modeling and synthesis of ZINC02765569 derivatives as protein tyrosine phosphatase 1B inhibitors: lead optimization study” (Med Chem Res, 2013).

Tests used:
[1] = target: T1, Tyrosine-protein phosphatase non-receptor type 1 (Homo sapiens) (UniProt P18031); assay: Inhibition of Homo sapiens (human) recombinant PTP1B assessed as decrease in free phosphate release at 10 uM by malachite staining relative to control
T1 sequence (whole entry): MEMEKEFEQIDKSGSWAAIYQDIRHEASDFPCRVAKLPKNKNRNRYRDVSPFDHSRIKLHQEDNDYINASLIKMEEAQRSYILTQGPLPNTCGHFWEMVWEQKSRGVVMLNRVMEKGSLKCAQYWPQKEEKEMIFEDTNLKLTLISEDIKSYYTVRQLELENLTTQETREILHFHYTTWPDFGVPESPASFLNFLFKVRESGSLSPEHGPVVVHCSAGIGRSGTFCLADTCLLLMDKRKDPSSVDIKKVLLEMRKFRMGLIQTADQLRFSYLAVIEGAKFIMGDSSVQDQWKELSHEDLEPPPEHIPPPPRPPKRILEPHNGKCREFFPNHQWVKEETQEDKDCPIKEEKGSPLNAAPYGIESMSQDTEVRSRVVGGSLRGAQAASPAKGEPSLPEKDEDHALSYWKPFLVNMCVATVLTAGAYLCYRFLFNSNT

[2] = target: T2, Tyrosine-protein phosphatase non-receptor type 1 (Rattus norvegicus) (UniProt P20417); assay: Inhibition of PTP1B in Rattus norvegicus (rat) L6 cells assessed as increase in 2-deoxy-D-[U-14C]-glucose uptake at 50 uM after 18 hr relative to control; type: cell-based
T2 sequence (whole entry): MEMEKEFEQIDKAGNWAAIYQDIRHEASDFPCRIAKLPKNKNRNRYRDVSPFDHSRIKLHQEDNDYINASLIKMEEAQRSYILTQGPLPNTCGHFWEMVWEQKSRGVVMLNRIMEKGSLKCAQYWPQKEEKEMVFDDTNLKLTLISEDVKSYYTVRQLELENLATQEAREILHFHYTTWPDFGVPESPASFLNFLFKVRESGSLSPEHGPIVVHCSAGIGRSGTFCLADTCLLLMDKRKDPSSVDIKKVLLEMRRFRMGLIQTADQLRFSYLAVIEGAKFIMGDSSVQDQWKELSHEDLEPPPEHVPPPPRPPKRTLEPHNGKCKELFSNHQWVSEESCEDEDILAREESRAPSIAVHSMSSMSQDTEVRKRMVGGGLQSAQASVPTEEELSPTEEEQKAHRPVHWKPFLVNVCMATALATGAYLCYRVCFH

inhibition [1] [%] | inhibition [2] [%] | SMILES
62.7 | 26.6 | COc1cccc2[nH]c(SCC(=O)Nc3cc(C(=O)O)ccc3Cl)nc12
53.9 | 29.2 | O=C(CSc1nc2ccccc2s1)Nc1cc(C(=O)O)ccc1O
18.7 | 22.5 | O=C(CSc1nc2ccccc2[nH]1)Nc1ccc(C(=O)O)cc1
23.2 | 58.6 | O=C(CSc1nc2ccccc2[nH]1)Nc1cc(C(=O)O)ccc1O
35.8 | 28.7 | O=C(CSc1nc2ccccc2[nH]1)Nc1cc(C(=O)O)ccc1Cl
24.2 | 59.2 | O=C(CSc1nc2ccccc2s1)Nc1cccc(C(=O)O)c1
36.6 | 37.6 | O=C(CSc1nc2c([N+](=O)[O-])cccc2[nH]1)Nc1cc(C(=O)O)ccc1Cl
20.9 | 31.4 | Cc1cccc2[nH]c(SCC(=O)Nc3cc(C(=O)O)ccc3Cl)nc12
56.2 | 28.7 | O=C(CSc1nc2ccccc2s1)Nc1cc(C(=O)O)ccc1Cl
66.4 | 39.6 | O=C(CSc1nc2ccccc2s1)Nc1ccc(C(=O)O)cc1
